Assay results published in DBAASP.
Converted amounts (≈) assume the structure as drawn.

How the values were obtained:
Assay in all cases: ≥ marks a high value that may be exact or a test limit, other limits are often not marked, values filed in µg/mL are converted to µM
Bacillus cereus = test system: Bacillus cereus
Staphylococcus aureus = test system: Staphylococcus aureus
Escherichia coli = test system: Escherichia coli
Pseudomonas aeruginosa = test system: Pseudomonas aeruginosa
[1] = test system: Staphylococcus aureus ATCC 25923
[2] = test system: Pseudomonas aeruginosa PAO1
Escherichia coli UB1005 = test system: Escherichia coli UB1005

## CC(C)C[C@H](NC(=O)[C@H](CCCCN)NC(=O)[C@H](Cc1ccccc1)NC(=O)[C@@H](NC(=O)[C@@H](NC(=O)CNC(=O)[C@H](CC(C)C)NC(=O)[C@@H](N)Cc1ccccc1)C(C)C)C(C)C)C(=O)N[C@@H](C)C(=O)N[C@@H](CO)C(=O)N[C@@H](CCCCN)C(=O)N[C@H](C(=O)N[C@@H](Cc1ccccc1)C(=O)N[C@@H](CCCCN)C(=O)N[C@@H](C)C(=O)N[C@H](C(=O)N[C@@H](Cc1ccccc1)C(=O)NCC(=O)N[C@@H](CCCCN)C(=O)N[C@H](C(=O)O)C(C)C)C(C)C)C(C)C [FLGVVFKLASKVFKAVFGKV]
Bacillus cereus
  MIC: 3.66 µM (≈ 8 µg/mL)
Staphylococcus aureus
  MIC: 3.66 µM (≈ 8 µg/mL)
Escherichia coli
  MIC: 58.6 µM (≈ 128 µg/mL)

## CC[C@H](C)[C@H](NC(=O)[C@H](CCCCN)NC(=O)[C@H](Cc1ccccc1)NC(=O)[C@H](CC(C)C)NC(=O)[C@@H]1CCCN1C(=O)[C@H](CO)NC(=O)[C@@H]1CCCN1C(=O)[C@@H](NC(=O)[C@@H](NC(=O)[C@H](C)NC(=O)[C@@H](NC(=O)CNC(=O)[C@H](CCCCN)NC(=O)CNC(=O)[C@H](C)NC(=O)[C@H](CCCN=C(N)N)NC(=O)[C@H](CCCCN)NC(=O)[C@@H](N)C(C)C)C(C)C)C(C)C)C(C)C)C(=O)N[C@H](C(=O)N[C@H](C(=O)O)C(C)C)C(C)C [VKRAGKGVAVVPSPLFKIVV]
Bacillus cereus
  MIC: ≥ 124 µM
Escherichia coli
  MIC: > 124 µM

## CSCC[C@H](N)C(=O)N[C@H](C(=O)N[C@H](C(=O)N[C@@H](Cc1ccccc1)C(=O)N[C@@H](CO)C(=O)N[C@H](C(=O)N1CCC[C@H]1C(=O)N[C@@H](CCCCN)C(=O)N[C@@H](Cc1ccccc1)C(=O)N[C@@H](CCCCN)C(=O)N[C@@H](CO)C(=O)N[C@H](C(=O)N[C@H](C(=O)N[C@@H](C)C(=O)N[C@@H](CCCCN)C(=O)N[C@@H](CC(C)C)C(=O)N[C@@H](CC(C)C)C(=O)N[C@@H](CO)C(=O)N[C@@H](CO)C(=O)N[C@@H](C)C(=O)O)C(C)C)[C@@H](C)O)C(C)C)C(C)C)C(C)C [MVVFSVPKFKSTVAKLLSSA]
Bacillus cereus
  MIC: ≥ 120 µM
Escherichia coli
  MIC: > 120 µM

## CC[C@H](C)[C@H](NC(=O)[C@@H](NC(=O)[C@H](C)NC(=O)[C@@H]1CCCN1C(=O)[C@@H](NC(=O)[C@@H](NC(=O)[C@H](CCCCN)NC(=O)[C@H](CO)NC(=O)[C@H](C)NC(=O)[C@H](CC(C)C)NC(=O)[C@H](CO)NC(=O)CNC(=O)[C@@H](NC(=O)[C@@H](NC(=O)CNC(=O)[C@@H](N)CC(C)C)C(C)C)C(C)C)C(C)C)C(C)C)C(C)C)C(=O)N[C@@H](CO)C(=O)N[C@@H](CCCCN)C(=O)N[C@H](C(=O)N[C@@H](CCCCN)C(=O)O)C(C)C [LGVVGSLASKVVPAVISKVK]
Bacillus cereus
  MIC: ≥ 131 µM
Escherichia coli
  MIC: > 131 µM

## CC[C@H](C)[C@H](NC(=O)[C@@H](NC(=O)[C@H](C)NC(=O)[C@@H]1CCCN1C(=O)[C@@H](NC(=O)[C@@H](NC(=O)[C@H](CCCCN)NC(=O)[C@H](CO)NC(=O)[C@H](C)NC(=O)[C@H](CC(C)C)NC(=O)[C@H](CCCN=C(N)N)NC(=O)CNC(=O)[C@H](CC(C)C)NC(=O)[C@H](C)NC(=O)[C@@H](N)CO)C(C)C)C(C)C)C(C)C)C(=O)NCC(=O)N[C@@H](CCCCN)C(=O)N[C@H](C(=O)N[C@H](C(=O)N[C@H](C(=O)O)[C@@H](C)O)[C@@H](C)O)C(C)C [SALGRLASKVVPAVIGKVTT]
Bacillus cereus
  MIC: ≥ 130 µM
Escherichia coli
  MIC: > 130 µM

## CC[C@H](C)[C@H](NC(=O)[C@H](Cc1ccccc1)NC(=O)[C@H](CO)NC(=O)[C@H](CCCCN)NC(=O)[C@H](Cc1c[nH]c2ccccc12)NC(=O)[C@@H](N)CCCCN)C(=O)N[C@@H](CCCCN)C(=O)N[C@@H](CCCCN)C(=O)N[C@@H](CC(C)C)C(=O)N[C@H](C(=O)N[C@@H](CO)C(=O)N[C@@H](CCCCN)C(=O)N[C@@H](C)C(=O)N[C@@H](CC(C)C)C(=O)N[C@@H](Cc1cnc[nH]1)C(=O)N[C@@H](CO)C(=O)N[C@@H](C)C(=O)N[C@@H](CCCCN)C(=O)N[C@@H](CCCCN)C(=O)N[C@@H](Cc1ccccc1)C(N)=O)[C@@H](C)O [KWKSFIKKLTSKALHSAKKF]
Pseudomonas aeruginosa
  MIC: 2.63 µM (≈ 6.25 µg/mL)

## CC(C)C[C@H](NC(=O)[C@H](Cc1ccc(O)cc1)NC(=O)[C@@H]1CCCN1C(=O)[C@@H]1CCCN1C(=O)[C@H](CCCCN)NC(=O)[C@@H]1CCCN1C(=O)[C@@H](N)C(C)C)C(=O)N1CCC[C@H]1C(=O)N[C@@H](CCCN=C(N)N)C(=O)N1CCC[C@H]1C(=O)N[C@@H](CCCN=C(N)N)C(=O)N1CCC[C@H]1C(=O)N1CCC[C@H]1C(=O)N[C@@H](CCCN=C(N)N)C(=O)N[C@@H](CCCN=C(N)N)C(=O)N[C@@H](CCCCN)C(=O)N[C@@H](Cc1ccc(O)cc1)C(=O)N[C@@H](CC(N)=O)C(=O)N[C@@H](CCCN=C(N)N)C(N)=O [VPKPPYLPRPRPPRRKYNR]
[1]
  MIC: 1.68 µM (≈ 4 µg/mL)
[2]
  MIC: 13.4 µM (≈ 32 µg/mL)
Escherichia coli UB1005
  MIC: 0.544 µM (≈ 1.3 µg/mL)

## CC[C@H](C)[C@H](NC(=O)[C@H](Cc1ccccc1)NC(=O)[C@H](CO)NC(=O)[C@H](CCCCN)NC(=O)[C@H](Cc1c[nH]c2ccccc12)NC(=O)[C@@H](N)CCCCN)C(=O)N[C@@H](CCCCN)C(=O)N[C@@H](CCCCN)C(=O)N[C@@H](CC(C)C)C(=O)N[C@H](C(=O)N[C@@H](CC(=O)O)C(=O)N[C@@H](CCCCN)C(=O)N[C@@H](Cc1ccccc1)C(=O)N[C@@H](CC(C)C)C(=O)N[C@@H](Cc1cnc[nH]1)C(=O)N[C@@H](CO)C(=O)N[C@@H](C)C(=O)N[C@@H](CCCCN)C(=O)N[C@@H](CCCCN)C(=O)N[C@@H](Cc1ccccc1)C(N)=O)[C@@H](C)O [KWKSFIKKLTDKFLHSAKKF]
Pseudomonas aeruginosa
  MIC: 10.1 µM (≈ 25 µg/mL)

## CC[C@H](C)[C@H](NC(=O)[C@@H](NC(=O)[C@H](CCCCN)NC(=O)[C@H](C)NC(=O)[C@H](CC(C)C)NC(=O)[C@H](CCCCN)NC(=O)[C@H](CCCCN)NC(=O)CN)[C@@H](C)O)C(=O)N[C@@H](C)C(=O)N[C@@H](CCCCN)C(=O)N[C@@H](CCC(=O)O)C(=O)N[C@H](C(=O)N[C@@H](C)C(=O)N[C@@H](CCCCN)C(=O)N[C@@H](CCC(N)=O)C(=O)NCC(=O)N[C@@H](C)C(=O)N[C@@H](CCCCN)C(=O)N[C@@H](Cc1ccccc1)C(=O)N[C@@H](C)C(=O)O)C(C)C [GKKLAKTIAKEVAKQGAKFA]
Bacillus cereus
  MIC: ≥ 123 µM
Escherichia coli
  MIC: 30.7 µM (≈ 64 µg/mL)

## CC[C@H](C)[C@H](NC(=O)[C@H](C)NC(=O)[C@H](CC(C)C)NC(=O)[C@H](CCCCN)NC(=O)[C@H](CC(C)C)NC(=O)[C@@H](NC(=O)[C@@H](NC(=O)[C@@H](N)CCCCN)[C@@H](C)CC)[C@@H](C)O)C(=O)N[C@@H](CCCCN)C(=O)N[C@@H](C)C(=O)N[C@@H](Cc1c[nH]c2ccccc12)C(=O)N[C@@H](CCCCN)C(=O)N[C@@H](CC(C)C)C(=O)N[C@@H](C)C(=O)N[C@@H](CC(C)C)C(=O)N[C@@H](CCCCN)C(=O)N[C@@H](C)C(=O)N[C@@H](C)C(N)=O [KITLKLAIKAWKLALKAA]
Pseudomonas aeruginosa
  MIC: 21.2 µM (≈ 42 µg/mL)
Staphylococcus aureus
  MIC: 5.3 µM (≈ 10.5 µg/mL)
Escherichia coli
  MIC: 5.3 µM (≈ 10.5 µg/mL)

## CC[C@H](C)[C@H](NC(=O)CN)C(=O)NCC(=O)N[C@@H](Cc1cnc[nH]1)C(=O)N[C@@H](Cc1ccccc1)C(=O)N[C@@H](CC(C)C)C(=O)N[C@@H](Cc1cnc[nH]1)C(=O)N[C@@H](CCCCN)C(=O)N[C@H](C(=O)N[C@@H](CCCCN)C(=O)N[C@@H](CO)C(=O)N[C@@H](Cc1ccccc1)C(=O)NCC(=O)N[C@@H](CCCCN)C(=O)N[C@@H](CO)C(=O)N[C@@H](Cc1c[nH]c2ccccc12)C(=O)N[C@H](C(=O)NCC(=O)N[C@@H](CCC(=O)O)C(=O)N[C@H](C(=O)N[C@@H](CCSC)C(=O)N[C@@H](CC(N)=O)C(=O)N[C@@H](CO)C(N)=O)[C@@H](C)CC)[C@@H](C)CC)C(C)C [GIGHFLHKVKSFGKSWIGEIMNS]
Pseudomonas aeruginosa
  MIC: 19 µM (≈ 48.9 µg/mL)
Staphylococcus aureus
  MIC: 76 µM (≈ 195 µg/mL)
Escherichia coli
  MIC: 19 µM (≈ 48.9 µg/mL)

## CC[C@H](C)[C@H](NC(=O)[C@H](Cc1ccccc1)NC(=O)[C@H](CO)NC(=O)[C@H](CCCCN)NC(=O)[C@H](Cc1ccccc1)NC(=O)[C@@H](N)CCCCN)C(=O)N[C@@H](CCCCN)C(=O)N[C@@H](CCCCN)C(=O)N[C@@H](CC(C)C)C(=O)N[C@H](C(=O)N[C@@H](CO)C(=O)N[C@@H](CCCCN)C(=O)N[C@@H](Cc1ccccc1)C(=O)N[C@@H](CC(C)C)C(=O)N[C@@H](Cc1cnc[nH]1)C(=O)N[C@@H](CO)C(=O)N[C@@H](C)C(=O)N[C@@H](CCCCN)C(=O)N[C@@H](CCCCN)C(=O)N[C@@H](Cc1ccccc1)C(N)=O)[C@@H](C)O [KFKSFIKKLTSKFLHSAKKF]
Pseudomonas aeruginosa
  MIC: 5.18 µM (≈ 12.5 µg/mL)

## CC[C@H](C)[C@H](NC(=O)[C@H](Cc1ccccc1)NC(=O)[C@H](CO)NC(=O)[C@H](CCCCN)NC(=O)[C@H](Cc1c[nH]c2ccccc12)NC(=O)[C@@H](N)CCCCN)C(=O)N[C@@H](CCCCN)C(=O)N[C@@H](CCCCN)C(=O)N[C@@H](CC(C)C)C(=O)N[C@H](C(=O)N[C@@H](CO)C(=O)N[C@@H](CCCCN)C(=O)N[C@@H](Cc1ccccc1)C(=O)N[C@@H](CC(C)C)C(=O)N[C@@H](Cc1cnc[nH]1)C(=O)N[C@@H](CO)C(=O)N[C@@H](C)C(=O)N[C@@H](CC(N)=O)C(=O)N[C@@H](CCCCN)C(=O)N[C@@H](Cc1ccccc1)C(N)=O)[C@@H](C)O [KWKSFIKKLTSKFLHSANKF]
Pseudomonas aeruginosa
  MIC: 2.56 µM (≈ 6.25 µg/mL)

## CC(C)C[C@H](NC(=O)[C@H](C)NC(=O)[C@@H](NC(=O)CNC(=O)[C@H](CCCCN)NC(=O)[C@@H](NC(=O)[C@@H](NC(=O)[C@H](CO)NC(=O)[C@H](CO)NC(=O)CNC(=O)[C@@H](NC(=O)[C@@H]1CCCN1C(=O)[C@H](CCCCN)NC(=O)[C@@H](NC(=O)[C@@H](N)CO)C(C)C)C(C)C)C(C)C)C(C)C)[C@@H](C)O)C(=O)N[C@H](C(=O)N[C@@H](CCCCN)C(=O)N[C@@H](Cc1ccccc1)C(=O)N[C@@H](Cc1ccccc1)C(=O)NCC(=O)O)C(C)C [SVKPVGSSVVKGTALVKFFG]
Bacillus cereus
  MIC: ≥ 128 µM
Escherichia coli
  MIC: > 128 µM

## CC(C)[C@H](NC(=O)CNC(=O)CNC(=O)[C@@H](NC(=O)[C@@H](N)Cc1ccccc1)C(C)C)C(=O)N[C@@H](C)C(=O)N[C@@H](CO)C(=O)N[C@@H](CCCCN)C(=O)N[C@H](C(=O)N[C@H](C(=O)N1CCC[C@H]1C(=O)N[C@@H](CO)C(=O)N[C@H](C(=O)N[C@@H](Cc1ccc(O)cc1)C(=O)N[C@@H](CS)C(=O)N[C@@H](CCCCN)C(=O)N[C@H](C(=O)N[C@@H](CO)C(=O)N[C@@H](CCCCN)C(=O)N[C@@H](CCCCN)C(=O)O)C(C)C)C(C)C)C(C)C)C(C)C [FVGGVASKVVPSVYCKVSKK]
Bacillus cereus
  MIC: ≥ 123 µM
Escherichia coli
  MIC: > 123 µM
